The text below walks through data of patent publication US20250197372A1 (priority 2020, published 2025).

Common to all, as to type: biochemical
The target in assay [1] is T1, recombinant alpha-glucosidase I (human full-length glucosidase I, Glu 1) (Homo sapiens, UniProt Q13724).
T1 construct: 6-His (C); made in house; host or cells: HEK-293T cells transduced with BacMam virus (virus raised in Sf9)
T1 sequence (Q13724 1-837): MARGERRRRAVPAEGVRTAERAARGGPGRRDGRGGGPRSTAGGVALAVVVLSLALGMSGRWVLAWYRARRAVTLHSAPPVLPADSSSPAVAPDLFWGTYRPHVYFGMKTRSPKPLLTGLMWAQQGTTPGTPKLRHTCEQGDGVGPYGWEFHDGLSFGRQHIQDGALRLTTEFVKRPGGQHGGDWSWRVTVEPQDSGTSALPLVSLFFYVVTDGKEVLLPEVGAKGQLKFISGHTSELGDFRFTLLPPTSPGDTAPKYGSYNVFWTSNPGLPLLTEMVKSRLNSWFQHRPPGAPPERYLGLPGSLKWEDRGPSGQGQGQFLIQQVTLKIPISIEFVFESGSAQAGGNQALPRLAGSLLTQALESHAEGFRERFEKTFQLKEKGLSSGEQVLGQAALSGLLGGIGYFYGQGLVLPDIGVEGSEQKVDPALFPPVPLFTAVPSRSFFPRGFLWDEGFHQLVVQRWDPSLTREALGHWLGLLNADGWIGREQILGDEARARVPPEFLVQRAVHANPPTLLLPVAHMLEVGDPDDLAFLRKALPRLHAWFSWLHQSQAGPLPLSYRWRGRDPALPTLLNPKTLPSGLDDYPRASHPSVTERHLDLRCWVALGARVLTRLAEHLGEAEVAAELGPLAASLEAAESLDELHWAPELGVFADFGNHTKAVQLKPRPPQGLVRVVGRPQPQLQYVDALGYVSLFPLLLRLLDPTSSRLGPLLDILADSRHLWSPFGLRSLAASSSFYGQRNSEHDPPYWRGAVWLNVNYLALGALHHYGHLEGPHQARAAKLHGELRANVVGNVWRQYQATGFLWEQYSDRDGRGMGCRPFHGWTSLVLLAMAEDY
The assay is described as follows: Alpha-glucosidase I assay (Amplex Red glucose detection, synthetic trisaccharide substrate). As to conditions: Glucosidase 1; read-out: Glu 1 IC50. In a few lines: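 Human full-length glucosidase I, His-tagged, […] and Ni-purified. Enzyme preincubated with compound dilutions 60 min at 37° C, then synthetic trisaccharide substrate 90 min at 37° C; stopped with 1.5M Tris pH 8.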

The target of assay [2] is recombinant human GAA (acid alpha-glucosidase) (Homo sapiens, UniProt P10253). As to the kind of experiment: Acid alpha-glucosidase (GAA) assay (4-methylumbelliferyl-alpha-D-pyranoside substrate, fluorescence). In a few lines:
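Recombinant human enzyme preincubated 60 min at 37 °C with compound dilutions, then 4-methylumbelliferyl-alpha-D-pyranoside substrate added for 20 min at 37 °C. Stopped with glycine/NaOH pH 10; methylumbelliferone fluorescence (ex 365, em 440 nm) versus untreated enzyme; IC50 by 4-PL fit.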

Assay [3] addresses rat maltase (partially purified alpha-glucosidase from intestinal rat powder). As to the kind of experiment: Intestinal alpha-glucosidase assay, maltose substrate (Glucose GO Kit). In a few lines:
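Rat intestinal enzyme prep + test cpd dilutions, 60 min 37 °C; add maltose (maltase) or sucrose (sucrase), 30 min 37 °C; stop 90 °C 5 min. Glucose readout (glucose oxidase kit). IC50 from 4-PL fit of % inhibition vs conc.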

For `COc1cc(NCCCCCCN2C[C@H](O)[C@@H](O)[C@H](O)[C@H]2CO)cc(-c2ncco2)c1` [Compound 1216, (2R,3R,4R,5S)-2-(hydroxymethyl)-1-(6-{[3-methoxy-5-(1,3-oxazol-2-yl)phenyl]amino}hexyl)piperidine-3,4,5-triol], the IC50 was determined as 67 nM in assay [1], 37 nM in assay [2] and 8 nM in assay [3].

As to `COc1cc(NCCCCCCN2C[C@H](O)[C@@H](O)[C@H](O)[C@H]2CO)cc(-c2ncccn2)c1` [Compound 1217, (2R,3R,4R,5S)-2-(hydroxymethyl)-1-(6-{[3-methoxy-5-(pyrimidin-2-yl)phenyl]amino}hexyl)piperidine-3,4,5-triol], the IC50 in assay [1] came out at 128 nM; in assay [2] it was 10 nM; in assay [3], 11 nM.

On to `COc1cc(NCCCCCCN2C[C@H](O)[C@@H](O)[C@H](O)[C@H]2CO)cc(-c2ncc[nH]2)c1` [Compound 1219, (2R,3R,4R,5S)-2-(hydroxymethyl)-1-(6-{[3-(1H-imidazol-2-yl)-5-methoxyphenyl]amino}hexyl)piperidine-3,4,5-triol], for which the IC50 stood at 93 nM in assay [1], 89 nM in assay [2] and 10 nM in assay [3].

Regarding `COCCCCCN(CCCNc1ccc(N=[N+]=[N-])cc1[N+](=O)[O-])CCCN1C[C@H](O)[C@@H](O)[C@H](O)[C@H]1CO` [Compound 1221, (2R,3R,4R,5S)-1-[3-({3-[(4-azido-2-nitrophenyl)amino]propyl}(5-methoxypentyl)amino)propyl]-2-(hydroxymethyl)piperidine-3,4,5-triol], the IC50 in assay [1] amounted to 2230 nM; in assay [2], 4510 nM; in assay [3], 233 nM.

For the compound `NC(=O)CCN(CCNc1ccc(-c2ncccn2)cc1[N+](=O)[O-])CCN1C[C@H](O)[C@@H](O)[C@H](O)[C@H]1CO` [Compound 1226, 3-[(2-{[2-nitro-4-(pyrimidin-2-yl)phenyl]amino}ethyl)({2-[(2R,3R,4R,5S)-3,4,5-trihydroxy-2-(hydroxymethyl)piperidin-1-yl]ethyl})amino]propanamide], the half-maximal inhibitory concentration (IC50) in assay [1] came out at 9530 nM; in assay [2], 20900 nM; in assay [3], 4630 nM.

On to `O=S(=O)(Nc1cc(-c2ncccn2)ccc1NCCCCCCN1C[C@H](O)[C@@H](O)[C@H](O)[C@H]1CO)C1CC1` [Compound 1227, N-[5-(pyrimidin-2-yl)-2-({6-[(2R,3R,4R,5S)-3,4,5-trihydroxy-2-(hydroxy-methyl)piperidin-1-yl]hexyl}amino)phenyl]cyclopropanesulfonamide], for which the results for the IC50 in assay [1], in assay [2] and in assay [3] were 169 nM, 82 nM and 12 nM, respectively.

Turning to `OC[C@@H]1[C@@H](O)[C@H](O)[C@@H](O)CN1CCCCCCNc1ccc(-c2ncccn2)cc1Cl` [Compound 1228, (2R,3R,4R,5S)-1-(6-{[2-chloro-4-(pyrimidin-2-yl)phenyl]amino}hexyl)-2-(hydroxymethyl)piperidine-3,4,5-triol], the values for the IC50 in assay [1], in assay [2] and in assay [3] were 19 nM, 68 nM and 1 nM, respectively.

For the compound `OC[C@@H]1[C@@H](O)[C@H](O)[C@@H](O)CN1CCCCCCNc1ccc(-c2ncccn2)cc1F` [Compound 1229, (2R,3R,4R,5S)-1-(6-{[2-fluoro-4-(pyrimidin-2-yl)phenyl]amino}hexyl)-2-(hydroxymethyl)piperidine-3,4,5-triol], the IC50 in assay [1] turned out to be 94 nM; in assay [2], 81 nM; in assay [3] it was 24 nM.

For `COc1cc(-c2ncccn2)ccc1NCCCCCCN1C[C@H](O)[C@@H](O)[C@H](O)[C@H]1CO` [Compound 1231, (2R,3R,4R,5S)-2-(hydroxymethyl)-1-(6-{[2-methoxy-4-(pyrimidin-2-yl)phenyl]amino}hexyl)piperidine-3,4,5-triol], the IC50 worked out at 187 nM in assay [1], 91 nM in assay [2] and 30 nM in assay [3].
